From PMC3541179, “Structural Insights into the Dual Strategy of Recognition by Peptidoglycan Recognition Protein, PGRP-S: Structure of the Ternary Complex of PGRP-S with Lipopolysaccharide and Stearic Acid” (PLoS ONE, 2013)

Molecular target: T1, CPGRP-S (camel short peptidoglycan recognition protein, PGRP-S) (Camelus dromedarius, UniProt Q9GK12)
T1 construct: gene PGLYRP1; native, purified from camel milk; full mature chain, residues 1-171, about 19-20 kDa; A-B and C-D contacts forming a linear polymer, 4 molecules in the asymmetric unit
T1 sequence (Q9GK12 23-193): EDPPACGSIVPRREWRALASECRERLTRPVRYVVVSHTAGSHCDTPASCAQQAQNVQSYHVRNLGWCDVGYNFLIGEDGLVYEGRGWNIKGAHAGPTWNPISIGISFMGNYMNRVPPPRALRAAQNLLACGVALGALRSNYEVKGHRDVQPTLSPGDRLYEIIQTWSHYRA
Assay: X-ray crystallography (soaked crystals, […] A); SPR on immobilized protein also shows binding
Settings: ternary complex with LPS at Site-1 (C-D contact); SA at Site-2 (A-B contact); crystals soaked in 70% reservoir solution and 30% ethanol
From the text: (camel short peptidoglycan recognition protein, PGRP-S) | SA is placed in the cleft at the A-B contact

Q: How did the “X-ray crystallography (soaked crystals, 2.8 A); SPR on immobilized protein also” value turn out when `CCCCCCCCCCCCCCCCCC(=O)O` [SA, stearic acid] was run?
A: The value was “SA is placed in the cleft at the A–B contact”.
